The results in this text go back to patent US7652046B2, “Substituted thienopyrrole carboxylic acid amides, pyrrolothiazole carboxylic acid amides, and related analogs as inhibitors of casein kinase I” (Aventis Pharmaceuticals Inc., priority 2004, dated 2010).

The target in this test is T1, Casein Kinase Iε (Homo sapiens, UniProt P49674).
T1 construct: made in house
T1 sequence (P49674 whole entry): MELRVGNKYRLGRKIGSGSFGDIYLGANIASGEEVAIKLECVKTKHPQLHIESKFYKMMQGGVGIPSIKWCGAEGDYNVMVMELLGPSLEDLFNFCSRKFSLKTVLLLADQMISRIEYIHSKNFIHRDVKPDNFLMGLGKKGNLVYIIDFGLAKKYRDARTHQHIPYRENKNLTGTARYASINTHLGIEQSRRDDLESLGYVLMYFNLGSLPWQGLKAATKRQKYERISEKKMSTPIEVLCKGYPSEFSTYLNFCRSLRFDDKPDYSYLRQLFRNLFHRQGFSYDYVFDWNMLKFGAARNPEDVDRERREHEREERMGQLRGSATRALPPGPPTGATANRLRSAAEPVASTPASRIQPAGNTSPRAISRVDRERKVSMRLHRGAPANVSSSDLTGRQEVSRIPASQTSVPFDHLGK
Kind of test: Casein Kinase Epsilon 33P-ATP Filter Plate Assay. It counts as biochemical. The source says:
Casein Kinase Epsilon ^33P-ATP Filter Plate Assay for Screening CKIε Inhibitors
Purpose: This assay measures the ability of compounds to inhibit the phosphorylation of the substrate casein by the enzyme casein kinase 1ε using an in vitro ^33P-ATP filtration assay. […] Materials:
Equipment: • Beckman Biomek 2000 Liquid Handling Robot • Beckman Multimek 96 Automated 96 Channel Pipettor • Millipore Vacuum Manifold Basic Kit # MAVM0960R • Titertek Multidrop Liquid Dispenser • Packard TopCount NXT Liquid Scintillation Counter
Enzyme: • Casein Kinase 1ε final concentration 0.58 mg/ml obtained from fermentation and purification processes as are well known to one skilled in the art. The above are stored as 100 μL aliquots at minus 80° C.
Compounds: • Supply compounds for testing as frozen 10 mM compound stock dissolved in 100% DMSO. Assay Conditions:
Final total assay volume per well is equal to 50 μL that one prepares as follows: • 5 μL of diluted compound stock (10, 1, 0.1, 0.01 or 0.001 μM), • 5 μL of dephosphorylated casein final concentration 0.2 μg/μL, • 20 μL of CK1ε final concentration 3 ng/μL, and • 20 μL of γ-^33P-ATP final concentration 0.02 μCi/μL mixed with cold ATP (10 μM final). Methodology: • 1. Prepare 500 mL of fresh assay buffer: 50 mM Tris pH 7.5, 10 mM MgCl2, 2 mM DTT and 1 mM EGTA • 2. Obtain compounds to be evaluated as 10 μL of 10 mM stock dissolved in 100% DMSO. Use a Biomek 2000 liquid handling robot, make serial dilutions to yield 10, 1, 0.1, 0.01 and 0.001 μM final compound dilutions added as 5 μL additions to Falcon U bottom plates. […] A routine screening assay will consist of 32 compounds, which equals 4 assay plates. • 3. Assay plate maps are set up according to the following pattern CK1ePlateMap.xls
• 4. Add 5 μL of compound as indicated, then add 5 μL of dephosphorylated casein (dissolved in distilled H20)(0.2 μg/μL) and 20 μL CK1ε (3 ng/μL) to the appropriate wells. • 5. Finally add 20 μL γ-^33P-ATP (0.02 μCi/μL)/10 μM cold ATP (equals approximately 2×10^6 CPM per well). • 6. Vortes the Falcon U-Bottom assay plate containing the above 50 μL reaction volume and then incubate at room temperature for 2 hours. • 7. At the end of 2 hours, stop the reaction by the addition of 65 μL of ice cold 2 mM cold ATP (made up in assay buffer) to the assay plates using a Beckman Multimek. • 8. At the same time add 25 μL 100% ice cold TCA made up in distilled H20 to a matching number of Millipore MAPH filter plates. • 9. Using a handheld 8-channel pipettor, transfer 100 μL of the reaction mixture from the Falcon U-Bottom Plate to the Millipore MAPH filter plates presoaked with TCA. • 10. Mix the Millipore MAPH filter plates gently and allow to sit at room temperature for at least 30 minutes to precipitate the proteins. • 11. After 30 minutes, place the filter plates on a Millipore vacuum manifold and filter at no more than 8 mm Hg as the MAPH filters tend to “air lock” at higher vacuum settings. • 12. Wash the filter plates sequentially and filter with 2×150 μL 20% TCA, 2×150 μL 10% TCA and 2×150 μL 5% TCA (total of 6 washes per plate/900 μL per well). • 13. Allow the plates to dry overnight at room temperature. The next day add 40 μL Packard Microscint-20 Scintillation Fluid per well using a Titertek Multidrop dispenser; seal the plates and count for 2 minutes/well in a Packard Topcount NXT Scintillation Counter (to provide CPM values/well). Calculation: • 1. Import Counts Per Minute (CPM) data into a proprietary data calculation and archiving database (Activity Base by IDBS version 5.0). • 2. Column 1 for each plate reflects total phosphorylation activity of the enzyme in the absence of any inhibiting compound and thus represents 100%. Column 12 reflects any nonspecific phosphorylation/retained radioactivity activity in the absence of inhibiting compound and enzyme.
`NC(=O)c1[nH]c2sccc2c1Sc1ccccn1` [IIa, 4-(pyridin-2-ylsulfanyl)-6H-thieno[2,3-b]pyrrole-5-carboxylic acid amide] had a Ki of 64 nM.

The compound `NC(=O)c1[nH]c2sccc2c1Sc1ccncc1` [IId, 4-(Pyridin-4-ylsulfanyl)-6H-thieno[2,3-b]-pyrrole-5-carboxylic acid amide] showed an inhibition constant Ki of 1070 nM.

As for `NC(=O)c1[nH]c2sccc2c1Sc1cc(Cl)cc(Cl)c1` [IIe, 4-(3,5-Dichlorophenyl-sulfanyl)-6H-thieno[2,3-b]pyrrole-5-carboxylic acid amide], the Ki was found to be 109 nM.

As for `NC(=O)c1[nH]c2sccc2c1Sc1cccs1` [IIf, 4-(Thiophen-2-yl-sulfanyl)-6H-thieno[2,3-b]pyrrole-5-carboxylic acid amide], affinity was put at a Ki of 1450 nM.

In the case of `COc1cccc(Sc2c(C(N)=O)[nH]c3sccc23)c1` [IIh, 4-(3-Methoxyphenyl-sulfanyl)-6H-thieno[2,3-b]pyrrole-5-carboxylic acid amide], the inhibition constant Ki turned out to be 24.7 nM.

For `NC(=O)c1[nH]c2sccc2c1Sc1cccc(Cl)c1` [IIj, 4-(3-Chlorophenyl-sulfanyl)-6H-thieno[2,3-b]pyrrole-5-carboxylic acid amide], the affinity corresponds to a Ki of 112 nM.

Turning to `Cc1cccc(Sc2c(C(N)=O)[nH]c3sccc23)c1` [IIk, 4-(3-Methylphenyl-sulfanyl)-6H-thieno[2,3-b]pyrrole-5-carboxylic acid amide], the affinity, expressed as Ki, was 70.6 nM.

As to `COc1cccc(Sc2c(C(N)=O)[nH]c3sc(C)nc23)c1` [IIm, 6-(3-Methoxyphenyl-sulfanyl)-2-methyl-4H-pyrrolo[3,2-d]thiazole-5-carboxylic acid amide], the affinity, expressed as Ki, was 68 nM.

Consider `Cc1nc2c(Sc3cccc(OC(F)(F)F)c3)c(C(N)=O)[nH]c2s1` [IIp, 6-(3-Trifluoromethoxy-phenylsulfanyl)-2-methyl-4H-pyrrolo[3,2-d]thiazole-5-carboxylic acid amide], for which the Ki was 4030 nM.

`NC(=O)c1[nH]c2sc(Sc3ccccc3)nc2c1Sc1ccccc1` [IIq, 2,6-Bis-phenylsulfanyl-4H-pyrrolo[3,2-d]thiazole-5-carboxylic acid amide] yielded an inhibition constant (Ki) of 334 nM.

`COc1cccc(Sc2nc3c(Sc4cccc(OC)c4)c(C(N)=O)[nH]c3s2)c1` [IIr, 2,6-Bis-(3-methoxy-phenylsulfanyl)-4H-pyrrolo[3,2-d]thiazole-5-carboxylic acid amide] registered a Ki of 333 nM.

`NC(=O)c1[nH]c2ccsc2c1Sc1ccccc1` [Ia, 6-Phenylsulfanyl-4H-thieno[3,2-b]pyrrole-5-carboxylic acid amide] displayed a Ki of 544 nM.

In turn, `NC(=O)c1[nH]c2ccsc2c1Sc1cccc(F)c1` [Ib, 6-(3-Fluorophenyl-sulfanyl)-4H-thieno[3,2-b]pyrrole-5-carboxylic acid amide] displayed a Ki of 157 nM.

In turn, `NC(=O)c1[nH]c2ccsc2c1Sc1ccc(Cl)cc1` [Ic, 6-(4-Chlorophenyl-sulfanyl)-4H-thieno[3,2-b]pyrrole-5-carboxylic acid amide] showed a Ki of over 10000 nM.

`NC(=O)c1[nH]c2ccsc2c1Sc1ccccn1` [Ie, 6-(Pyridin-2-ylsulfanyl)-4H-thieno[3,2-b]pyrrole-5-carboxylic acid amide] displayed a Ki of 159 nM.

`Cc1ccc(Sc2c(C(N)=O)[nH]c3ccsc23)cc1` [If, 6-p-Tolylsulfanyl-4H-thieno[3,2-b]pyrrole-5-carboxylic acid amide] yielded a Ki of 3090 nM.

With `NC(=O)c1[nH]c2ccsc2c1Sc1cccs1` [Ig, 6-(Thiophen-2-yl-sulfanyl)-4H-thieno[3,2-b]pyrrole-5-carboxylic acid amide], affinity was put at a Ki of 915 nM.

For the compound `NC(=O)c1[nH]c2ccsc2c1Sc1cc(Cl)cc(Cl)c1` [Ih, 6-(3,5-Dichloro-phenylsulfanyl)-4H-thieno[3,2-b]pyrrole-5-carboxylic acid amide], the Ki came out at 71 nM.

`NC(=O)c1[nH]c2ccsc2c1Sc1ccncc1` [Ii, 6-(Pyridin-4-ylsulfanyl)-4H-thieno[3,2-b]pyrrole-5-carboxylic acid amide] yielded a Ki of 1680 nM.

The compound `Cc1cccc(Sc2c(C(N)=O)[nH]c3ccsc23)c1` [Ij, 6-m-Tolylsulfanyl-4H-thieno[3,2-b]pyrrole-5-carboxylic acid amide] gave a Ki of 116 nM.

Compound `Cc1ccccc1Sc1c(C(N)=O)[nH]c2ccsc12` [Ik, 6-o-Tolylsulfanyl-4H-thieno[3,2-b]pyrrole-5-carboxylic acid amide] came in with a Ki of 468 nM.

For the compound `NC(=O)c1[nH]c2ccsc2c1Sc1cccc(Cl)c1Cl` [Il, 6-(2,3-Dichloro-phenylsulfanyl)-4H-thieno[3,2-b]pyrrole-5-carboxylic acid amide], the Ki stood at 324 nM.

Consider `NC(=O)c1[nH]c2ccsc2c1Sc1cc(Cl)ccc1Cl` [Im, 6-(2,5-Dichloro-phenylsulfanyl)-4H-thieno[3,2-b]pyrrole-5-carboxylic acid amide], for which the Ki came to 1270 nM.

Take `CCc1ccccc1Sc1c(C(N)=O)[nH]c2ccsc12` [In, 6-(2-Ethylphenylsulfanyl)-4H-thieno[3,2-b]pyrrole-5-carboxylic acid amide]: the Ki was 238 nM.

In turn, `NC(=O)c1[nH]c2ccsc2c1Sc1cccc(Br)c1` [Io, 6-(3-Bromo-phenylsulfanyl)-4H-thieno-[3,2-b]pyrrole-5-carboxylic acid amide] came in with a Ki of 78.7 nM.

`Cc1cc(C)cc(Sc2c(C(N)=O)[nH]c3ccsc23)c1` [Ip, 6-(3,5-Dimethylphenylsulfanyl)-4H-thieno[3,2-b]pyrrole-5-carboxylic acid amide]: the affinity corresponds to a Ki of 357 nM.

On to `COc1cccc(Sc2c(C(N)=O)[nH]c3ccsc23)c1` [Iq, 6-(3-Methoxy-phenylsulfanyl)-4H-thieno[3,2-b]pyrrole-5-carboxylic acid amide], for which the affinity, expressed as Ki, was 38 nM.

Consider `COc1ccccc1Sc1c(C(N)=O)[nH]c2ccsc12` [Ir, 6-(2-Methoxy-phenylsulfanyl)-4H-thieno[3,2-b]pyrrole-5-carboxylic acid amide], for which the Ki stood at 331 nM.

As for `NC(=O)c1[nH]c2ccsc2c1Sc1ccccc1C(F)(F)F` [Is, 6-(2-Trifluoromethyl-phenylsulfanyl)-4H-thieno[3,2-b]pyrrole-5-carboxylic acid amide], the affinity, expressed as Ki, was 481 nM.

Compound `NC(=O)c1[nH]c2ccsc2c1Sc1ccccc1F` [It, 6-(2-Fluoro-phenylsulfanyl)-4H-thieno[3,2-b]pyrrole-5-carboxylic acid amide] registered a Ki of 425 nM.

The compound `NC(=O)c1[nH]c2ccsc2c1Sc1cccc(OC(F)(F)F)c1` [Iu, 6-(3-Trifluoromethoxy-phenylsulfanyl)-4H-thieno[3,2-b]pyrrole-5-carboxylic acid amide] showed a Ki of 562 nM.

With `NC(=O)c1[nH]c2ncsc2c1Sc1ccccc1` [Iv, 6-Phenylsulfanyl-4H-pyrrolo[2,3-d]thiazole-5-carboxylic acid amide], the Ki stood at 4550 nM.

Regarding `NC(=O)c1[nH]c2ncsc2c1Sc1cccc(F)c1` [Iw, 6-(3-Fluoro-phenylsulfanyl)-4H-pyrrolo[2,3-d]thiazole-5-carboxylic acid amide], the Ki turned out to be 2030 nM.

Turning to `NC(=O)c1[nH]c2ncsc2c1Sc1ccccn1` [Ix, 6-(Pyridin-2-ylsulfanyl)-4H-pyrrolo[2,3-d]thiazole-5-carboxylic acid amide], the Ki came to 1750 nM.

As a reminder, the Ki is the equilibrium dissociation constant of an inhibitor or competing ligand from its target. A low value points to higher affinity.
